Reference: US10501426B1, “Synthesis of thiazole derivative as anticancer and anti-antibiotics resistant bacteria agent” (priority 2019, dated 2019)

Legend:
Experiment in all cases: Antibiotic susceptibility testing, Vitek System
Format in all cases: cell-based, Staphylococcus epidermidis
[1] = system: S. epidermidis S1
Description: (§1) Compound 6, synthesized as above, was evaluated as an antimicrobial agent against selected antibiotics resistant Staphylococcus epidermidis. The bacterial strains were obtained from Laboratory (2b56) of the Botany and Microbiology Department, College of Science, King Saud University, Riyadh. The bacterial strains were isolated from the skin of healthy students and identified by an automated antibiotic susceptibility testing system, Vitek System (BioMerieux, France).

[2] = system: S. epidermidis S2
Description: as §1

[3] = system: S. epidermidis S3
Description: as §1
Note: key: S = susceptible; R = Resistant; I = intermediate.

Row | Molecule | susceptibility to standard antibiotics [1] | susceptibility to standard antibiotics [2] | susceptibility to standard antibiotics [3]
1 | O=C(O)c1cn(C2CC2)c2cc(N3CCNCC3)c(F)cc2c1=O [Ciprofloxacin] | S | R | R
2 | CCC[C@@H]1C[C@@H](C(=O)N[C@@H]([C@H]2O[C@H](SC)[C@H](O)[C@@H](O)[C@H]2O)[C@H](C)Cl)N(C)C1 [Clindamycin] | S | R | R
3 | CCCCCCCCCC(=O)N[C@@H](Cc1c[nH]c2ccccc12)C(=O)N[C@H](CC(N)=O)C(=O)N[C@@H](CC(=O)O)C(=O)N[C@@H]1C(=O)NCC(=O)N[C@@H](CCCN)C(=O)N[C@@H](CC(=O)O)C(=O)N[C@H](C)C(=O)N[C@@H](CC(=O)O)C(=O)NCC(=O)N[C@H](CO)C(=O)N[C@@H]([C@H](C)CC(=O)O)C(=O)N[C@@H](CC(=O)c2ccccc2N)C(=O)O[C@@H]1C [Daptomycin] | S | R | R
4 | CC[C@H]1OC(=O)[C@H](C)[C@@H](O[C@H]2C[C@@](C)(OC)[C@@H](O)[C@H](C)O2)[C@H](C)[C@@H](O[C@@H]2O[C@H](C)C[C@H](N(C)C)[C@H]2O)[C@](C)(O)C[C@@H](C)C(=O)[C@H](C)[C@@H](O)[C@]1(C)O [Erythromycin] | R | R | R
5 | C[C@@H]1O[C@@H]1P(=O)(O)O [Fosfomycin] | S | S | S
6 | CC(=O)O[C@H]1C[C@@]2(C)[C@@H](C[C@@H](O)[C@H]3[C@@]4(C)CC[C@@H](O)[C@@H](C)[C@@H]4CC[C@@]32C)/C1=C(\CCC=C(C)C)C(=O)O [Fusidic Acid] | S | R | R
7 | C[C@H]1COc2c(N3CCN(C)CC3)c(F)cc3c(=O)c(C(=O)O)cn1c23 [Levofloxacin] | S | R | S
8 | CC(=O)NC[C@H]1CN(c2ccc(N3CCOCC3)c(F)c2)C(=O)O1 [Linezolid] | S | R | R
9 | C[C@@H](O)[C@H]1C(=O)N2C(C(=O)O)=C(SCCN=CN)C[C@H]12 [Lmipenem] | S | S | S
10 | COc1c(N2C[C@@H]3CCCN[C@@H]3C2)c(F)cc2c(=O)c(C(=O)O)cn(C3CC3)c12 [Moxifloxacin] | S | R | S
11 | C/C(=C\C(=O)OCCCCCCCCC(=O)O)C[C@@H]1OC[C@H](C[C@@H]2O[C@H]2[C@@H](C)[C@H](C)O)[C@@H](O)[C@H]1O [Mupirocin] | S | R | R
12 | Cc1onc(-c2ccccc2)c1C(=O)N[C@@H]1C(=O)N2[C@@H]1SC(C)(C)[C@@H]2C(=O)O [Oxacillin] | S | R | R
13 | CO[C@H]1/C=C/O[C@@]2(C)Oc3c(C)c(O)c4c(O)c(c(/C=N/N5CCN(C)CC5)c(O)c4c3C2=O)NC(=O)/C(C)=C\C=C\[C@H](C)[C@H](O)[C@@H](C)[C@@H](O)[C@@H](C)[C@H](OC(C)=O)[C@@H]1C [Rifampin] | S | R | R
14 | CN(C)[C@@H]1C(O)=C(C(N)=O)C(=O)[C@@]2(O)C(O)=C3C(=O)c4c(O)cccc4[C@@](C)(O)[C@H]3C[C@@H]12 [Tetracycline] | S | S | S
15 | CN[C@H](CC(C)C)C(=O)N[C@H]1C(=O)N[C@@H](CC(N)=O)C(=O)N[C@H]2C(=O)N[C@H]3C(=O)N[C@H](C(=O)N[C@H](C(=O)O)c4cc(O)cc(O)c4-c4cc3ccc4O)[C@H](O)c3ccc(c(Cl)c3)Oc3cc2cc(c3O[C@@H]2O[C@H](CO)[C@@H](O)[C@H](O)[C@H]2O[C@H]2C[C@](C)(N)[C@H](O)[C@H](C)O2)Oc2ccc(cc2Cl)[C@H]1O [Vancomycin] | S | R | S
16 | Gentamicin | S | S | S
17 | Teicoplanin | S | R | S
